These results are taken from US5110933A, “Salts of 3-azabicyclo[3.3.1]nonanes as antiarrhythmic agents, and precursors thereof” (Board of Regents of Oklahoma State University, priority 1990, dated 1992).

Data set [1] relates to Sustained ventricular tachycardia induced by electrical pacing of infarcted dog heart. As to the kind of experiment: Antiarrhythmic activity on sustained ventricular tachycardia induced by electrical pacing of infarcted dog heart. Type of data set: in vivo. As to conditions: for ability to reduce the rate of the induced VT or to eliminate the same: 3 mg/kg as well as 6 mg/kg. From the text:
To illustrate the useful biological properties of the compounds described in this invention, selected derivatives were screened for antiarrhythmic activity using dog models. The clinically used agent lidocaine and 7-benzyl-3-thia-7-azabicyclo[3.3.1]nonane hydroperchlorate (48) [U.S. Pat. No. 4,581,361] were employed as standards as basis for comparison. A small infarction was created in an area of the dog heart and thereafter electrical pacing was initiated to generate a sustained ventricular tachycardia (VT). This irregular beating pattern of the heart results in a reduction of the pumping capability of the heart in a manner now accepted as resembling symptoms observed in humans during a heart attack (see: Scherlag, B. J. et. al., Am. J. Cardiol. 1983, 51, 207; Bailey, B. R. et. al., J. Med. Chem. 1984, 27, 759; Thompson, M. D. et. al., J. Med. Chem. 1987, 30, 780; U.S. Pat. No. 4,581,361; and U.S. Pat. No. 4,778,892 for further details, said references incorporated herein for such purposes). The effects of the selected compounds in terms of ability to reduce the rate of the induced VT or to eliminate the same (abolish the VT completely or at least not allow it to be sustained) is then evaluated and compared to lidocaine or to 7-benzyl-3-thia-7-azabicyclo[3.3.1]nonane hydroperchlorate (48).

On the set-up of data set [2]: species or system rats. As to conditions: rat, in vivo, po.
A short description of data set [3]: Tissue distribution of radioactivity after oral administration of (48)*. As to conditions: rat, in vivo. The arrangement: species or system rats. From the text: In order to determine the potential viability of members of the above family to act as useful antiarrhythmic agents in vivo, a pharmacokinetic and metabolism study was undertaken using a representative example from the above compounds. The techniques employed in these preliminary studies are well documented, but a summary of pharmacokinetic procedures can be found in: J. D. Baggot, "Principals of Drug Disposition in Domestic Animals: The Basis of Veterinary Clinical Pharmacology", W. B. Saunders Company, Philadelphia, 1977. These studies were conducted using ^14 C-labelled (48)* [Prepared by the method of Zisman, Berlin, et al. J. Labelled Compounds and Radiopharmaceuticals, In Press (1989)] in Sprague-Dawley rats.
Tissue distribution of (48)* was studied by measuring the radioactivity in selected organs collected from rats sacrificed at several time intervals after oral administration. […] These observations correlate well with the high volume of distribution calculated from pharmacokinetic data.

Regarding `CC(C)N1CC2CC(CN(C(=O)c3ccccc3)C2)C1` [(1), 3-Benzoyl-7-isopropyl-3,7-diazabicyclo[3.3.1]nonane Hydroperchlorate], the “ability to reduce the rate of the induced VT or to eliminate the same” value (“ability to reduce the rate” for short) in data set [1] was “extremely effective in eliminating the induced VT”.
Turning to `COc1ccc(C(=O)N2CC3CC(C2)CN(C(C)C)C3)cc1OC.[O-][Cl+3]([O-])([O-])O` [(3), 3-(3',4'-Dimethoxybenzoyl)-7-isopropyl-3,7-diazabicyclo[3.3.1]nonane Hydroperchlorate], in data set [1], the “ability to reduce the rate” value is listed as “extremely effective in eliminating the induced VT”.
Still for that read-out and setting: the result for `CC(C)N1CC2CC(CN(Cc3ccccc3)C2)C1` [(5), 7-Benzyl-3-isopropyl-3,7-diazabicyclo[3.3.1]nonane Hydroperchlorate] reads “extremely effective in eliminating the induced VT”.
For `CC(C)N1CC2CSCC(C2)C1` [(8), 7-Isopropyl-3-thia-7-azabicyclo[3.3.1]nonane Hydroperchlorate], the “Effect on SVT” value in data set [1] (3mg/kg) and in data set [1] (6mg/kg) was “No action” throughout. Moreover, the “ability to reduce the rate” value in data set [1] is listed as “exhibited little effect on the dog model”.
`[O-][S+]1CC2CC(CN(Cc3ccccc3)C2)C1` (stereo not drawn) [(10), 7-Benzyl-3-thia-7-azabicyclo[3.3.1]nonane 3-Oxide Hydroperchlorate]: the “Effect on SVT” value in data set [1] (3mg/kg) and in data set [1] (6mg/kg) was “Reduced rate of VT” throughout. For the same compound, the “ability to reduce the rate” value in data set [1] is reported as “reduced the rates of the induced VT but did not abolish them”.
With `COC1(OC)C2CSCC1CN(Cc1ccccc1)C2` [(11), 7-Benzyl-9,9-dimethoxy-3-thia-7-azabicyclo[3.3.1]-nonane Hydroperchlorate], the “ability to reduce the rate” value in data set [1] is “extremely effective in eliminating the induced VT”.
Consider `COC1(OC)C2CN(Cc3ccccc3)CC1CN(Cc1ccccc1)C2` [(12), 3,7-Dibenzyl-9,9-dimethoxy-3,7-diazabicyclo[3.3.1]nonane Hydroperchlorate], for which the “Effect on SVT” value in data set [1] (3mg/kg) and in data set [1] (6mg/kg) was “Reduced” in each case. Besides, the “ability to reduce the rate” value in data set [1] is given as “reduced the rates of the induced VT but did not abolish them”.
In the case of `O=C(c1ccccc1)N1CC2CSCC(C2)C1` [(15)], the “Effect on SVT” value in data set [1] (3mg/kg) and in data set [1] (6mg/kg) was “Reduced” in each case. Also, in data set [1], the “ability to reduce the rate” value is “reduced the rates of the induced VT but did not abolish them”.
Turning to `O=C1C2CC(CN(Cc3ccccc3)C2)CN1Cc1ccccc1` (stereo not drawn) [(17), 3,7-Dibenzyl-3,7-diazabicyclo[3.3.1]nonan-2-one], the “Effect on SVT” value in data set [1] (3mg/kg) and in data set [1] (6mg/kg) was “Reduced” each time. Also, the “ability to reduce the rate” value in data set [1] was “reduced the rates of the induced VT but did not abolish them”.
Turning to `c1ccc(CN2CC3CSCC(C3)C2)cc1` [(48)], the excretion in urine result in data set [2] is reported as “most of the dose was excreted in the form of metabolites”. In addition, in data set [3], the “radioactivity in liver and kidney” value is “High levels of radioactivity”; the “radioactivity in the heart” value is on record as “Reasonably high concentrations of radioactivity”.
For the compound “Ethyl 3-Benzyl-3-azabicyclo[3.3.1]nonane-7-(endo)-carboxylate Hydroperchlorate [(13)]”, the “ability to reduce the rate” value in data set [1] was “extremely effective in eliminating the induced VT”.
For the compound “Ethyl 3-Benzyl-9,9-(1,3-dithiolan-2-yl)-3-azabicyclo[3.3.1]nonane-7-(endo)-carboxylate Hydroperchlorate [(14)]”, in data set [1], the “ability to reduce the rate” value is on record as “extremely effective in eliminating the induced VT”.
